# Experimental data: patent US11535610B2, “Acid addition salts of benzimidazole derivative” (HK INNO.N CORPORATION, priority 2016, dated 2022)
# Where two headings read alike, the source gives them in different places.
# Assays:
# [1] = Comparative test on solubility of amorphous acid addition salts (supersaturation method); settings: room temperature, solubility of acid addition salt per se, not converted to free base; for solubility: water, thermodynamic from solid, Water solubility
# [2] = Comparative test on solid-phase stability (Karl Fischer, HPLC); type: physicochemical; settings: for Total impurities (%), 1 month elapsed / Total impurities (%), Initial: HPLC area %; for Total impurities (%), 1 month elapsed / Moisture (%), 1 month elapsed: PE-bag, 75% RH, one month; for Moisture (%), 1 month elapsed / Moisture (%), Initial: Karl Fischer
# [3] = Comparative test on liquid-phase stability (HPLC, degradation product of formula 4); type: physicochemical; settings: for Concentration (%) of degradation product (compound of the formula 4), Initial / Concentration (%) of degradation product (compound of the formula 4), 1 day (24 hours) elapsed: 20 mg/ml
# [4] = Comparative test on precipitation stability in pH 6.8 buffer; type: physicochemical; settings: 10 mg/ml in buffer solution of pH 6.8, stored at 37° C. for 24 hours
# [5] = Water solubility at room temperature of 1:1 co-crystals of the compound of the formula 1 with co-crystal formers; settings: co-crystal at 1:1 molar ratio with compound of the formula 1
Molecule,"Concentration of degradation products (%), Initial [2]","Total impurities (%), 1 month elapsed [2]","Total impurities (%), Initial [2]","Moisture (%), 1 month elapsed [2]","Moisture (%), Initial [2]",Soil precipitation or not [4],Water-solubility [5],also measured
Cc1nc2c(O[C@H]3CCOc4cc(F)cc(F)c43)cc(C(=O)N(C)C)cc2[nH]1,0.04%,0.06%,0.06%,0.1%,0.1%,a homogenous solution was maintained,,"solubility [1]: ≥ 50000 µg/mL; Concentration of degradation products (%), 1 month elapsed ([2]; 1 month): 0.04%; Concentration (%) of degradation product (compound of the formula 4), Initial [3]: 0.03%; Concentration (%) of degradation product (compound of the formula 4), 1 day (24 hours) elapsed [3]: 0.07%"
O=S(=O)(O)c1cccc2c(S(=O)(=O)O)cccc12 [1.5-naphinalenedisulfonic acid],,,,,,,,Water solubility [1]: 2500 µg/mL
Cc1nc2c(OC3CCOc4cc(F)cc(F)c43)cc(C(=O)N(C)C)cc2[nH]1 (centres unmarked) [Amorphous free base],,,,,,,,solubility [1]: 3000 µg/mL
C[C@H](N)C(=O)O [L-Alanine],,,,,,,4000 µg/mL,
NCCCC[C@H](N)C(=O)O [L-Lysine],,,,,,,8000 µg/mL,
CC(C)[C@H](N)C(=O)O [L-Valine],,,,,,,3000 µg/mL,
CC(C)C[C@H](N)C(=O)O [L-leucine],,,,,,,12000 µg/mL,
Cc1ccc(S(=O)(=O)O)cc1 [p-toluenesulfonic acid],,,,,,,,Water solubility [1]: 27000 µg/mL

# Now from value to molecule, other results behind:
"Concentration of degradation products (%), Initial [2]","Total impurities (%), 1 month elapsed [2]","Total impurities (%), Initial [2]","Moisture (%), 1 month elapsed [2]","Moisture (%), Initial [2]",Soil precipitation or not [4],Molecule,Water-solubility [5],also measured
0.02%,0.07%,0.07%,0.1%,0.1%,a homogenous solution was maintained,O=C1CC[C@@H](C(=O)O)N1 [L-pyroglutamic acid],,"Concentration of degradation products (%), 1 month elapsed ([2]; 1 month): 0.02%; Concentration (%) of degradation product (compound of the formula 4), Initial [3]: 0.02%; Concentration (%) of degradation product (compound of the formula 4), 1 day (24 hours) elapsed [3]: 0.05%"
0.09%,0.43%,0.14%,0.3%,0.1%,Precipitated,Fumaric acid,,"Concentration of degradation products (%), 1 month elapsed [2]: 0.12%; physical state of the solution (homogenous liquid-phase state or gel) ([3]; 20 mg/ml in purified water, stirred at 40° C.): formed a sticky gel; Soil precipitation or not ([4]; listed as fumaric acid): a solid was precipitated"
